Assay results taken from patent US20240390383A1, “DIOXAZINES AND THEIR USE IN TREATMENT OF GBA-RELATED DISEASES” (ZEVRA DENMARK A/S, priority 2021, published 2024).
Where “and” joins values, the source holds several entries; their conditions need not be identical. Identical values can stand only once.

Biological target: T1, GCase (GBA) in human fibroblast cell line GM10915 harboring the L444P GBA mutation (Homo sapiens, UniProt P04062, L483P)
T1 construct: Human fibroblast cell line GM10915 harboring the L444P GBA mutation; host or cells: GM10915 human fibroblasts
T1 sequence (P04062 40-536 L483P): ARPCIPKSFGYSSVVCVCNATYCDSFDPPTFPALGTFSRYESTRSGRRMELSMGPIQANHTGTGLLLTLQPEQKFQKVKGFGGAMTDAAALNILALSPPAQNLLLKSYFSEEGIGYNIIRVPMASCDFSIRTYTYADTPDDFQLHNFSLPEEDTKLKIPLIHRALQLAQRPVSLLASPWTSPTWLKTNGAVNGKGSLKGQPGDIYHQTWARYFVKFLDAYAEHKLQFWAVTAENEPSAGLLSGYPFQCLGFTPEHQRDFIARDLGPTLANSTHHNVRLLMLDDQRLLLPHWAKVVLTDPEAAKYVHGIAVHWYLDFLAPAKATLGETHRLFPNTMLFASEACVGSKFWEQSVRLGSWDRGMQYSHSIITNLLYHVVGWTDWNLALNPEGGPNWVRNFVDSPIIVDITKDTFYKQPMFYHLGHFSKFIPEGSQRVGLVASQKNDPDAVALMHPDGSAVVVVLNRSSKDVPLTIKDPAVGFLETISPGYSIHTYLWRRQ
Assay: GCase activity assay (4-MUG substrate, normalised to crystal violet staining) in L444P GBA fibroblasts
Type: cell-based
Conditions: 5 days exposure; for GBA EC1.5: concentration giving 150% GCase activity (1.5-fold induction), 8-point dose range; for Emax / GBA Emax: maximum percent GCase activity relative to untreated cells in the dose range tested
Procedure: Human fibroblast cell line GM10915 harboring the L444P GBA mutation was obtained from Coriell Biorepositories.
All chemicals (Glacial acetic acid, Glycine, 4-Methylumbelliferyl b-D-glucopyranoside (4-MUG), Sodium acetate trihydrate, Sodium hydroxide, Crystal violet, SDS, Ammonium hydroxide) were obtained from Sigma-Aldrich (Denmark) Compounds tested for GCase activity were dissolved in H2O or DMSO.
The GM10915 cell line was cultured under standard cell culture conditions (37° C. and 5% CO2) in complete DMEM medium supplemented with nonessential amino acids (NEAA), 1% Pen-Strep and 12% FCS. Cells were seeded at a density of 10^4 cells/well in 100 μL complete medium in one black 96-well plate for glucosylceramidase (GCase) activity measurement and in one clear 96-well plate for crystal violet staining to correct for cell density. Crystal violet staining is performed to obtain quantitative information about the relative density of cells adhering to multi-wells plates.
The assay was adapted from Sawkar et al (2002) and briefly described in the following. The day after seeding of cells, the medium was replaced with fresh medium containing the compounds to be tested. Compounds were tested in duplicate and in an 8-point diluted dose range to obtain a dose response. Cells were exposed with compounds for five days. Fresh compound was added every 2-3 days. PBS was included to define the basal level of GCase activity.
Cells were washed three times with 200 μL PBS per well and 50 μL of 2.5 mM 4-MUG buffer (4-MUG dissolved in 0.2 M acetate buffer pH 4.0) was added and the cells were incubated at 37° C., 5% CO2 for 23 hours. The reaction was stopped by adding 150 μL 0.2 M glycine buffer (pH 10.8). Fluorescence was measured with a Varioskan® Flash reader (Thermo Scientific) at an excitation/emission setting of 365/445 nm.
Cells were treated with compounds in a parallel setup identical to the setup to test for GCase activity. At the end of compound treatment, cells were washed once with 200 μL PBS per well and 50 μL 0.1% w/v crystal violet (in H2O) was added. Following 10 min. of incubation, the crystal violet solution was removed, and the cells were washed three times with 200 μL PBS and 100 μL 1% SDS was added to solubilize the stain. The plate was agitated on an orbital shaker for 10-30 min. Absorbance (A) is measured at […] using a Varioskan® Flash reader (Thermo Scientific).
The fluorescence signal (F) derived from the GCase measurement is normalized to the absorbance signal (A) derived from the crystal violet staining. The percent GCase activity resulting from compound treatment is calculated relative to the basal activity obtained from untreated cells.
Maximal effect of compounds (Emax) is determined from the dose response effects as the maximum “Percent GCase activity” achieved in the dose range tested.

SMILES	GBA EC1.5	Emax	GBA Emax
CN1CC2CC[C@H](C1)N2CC1CON=C(C2(C)CCNCC2)O1 (some centres unmarked) [compound 627]	48 µM	133%	–
CC1(C2=NOCC(CN3CCCCC3)O2)CCCN1 (racemic) [compound 566, rac-3-(2-methylpyrrolidin-2-yl)-5-(piperidin-1-ylmethyl)-5,6-dihydro-1,4,2-dioxazine]	36 µM	164%	–
CN(C)CC1(C2=NOCC(CN3CCCCC3)O2)CCN(C)C1 (racemic) [compound 826, rac-N,N-dimethyl-1-(1-methyl-3-(5-(piperidin-1-ylmethyl)-5,6-dihydro-1,4,2-dioxazin-3-yl)pyrrolidin-3-yl)methanamine]	7 µM	190%	–
CN(C)C(=O)N1CCCC1C1=NOCC(CN2CCCCC2)O1 (centres unmarked) [compound 694]	50 µM	115%	–
C1CCN(CC2CON=C(C34CCCNCC3C4)O2)CC1 (racemic) [compound 519, rac-3-(3-azabicyclo[5.1.0]octan-7-yl)-5-(piperidin-1-ylmethyl)-5,6-dihydro-1,4,2-dioxazine]	40 µM	159%	–
COc1cc(OC)c(CNCCC2=NOCC(CN3CCCCC3)O2)cn1 (centres unmarked) [compound 829]	5 µM	175%	–
CN1CCC(C2=NOCC(CN3CCCCC3)O2)C1 (racemic) [compound 546, rac-3-(1-methylpyrrolidin-3-yl)-5-(piperidin-1-ylmethyl)-5,6-dihydro-1,4,2-dioxazine]	18 µM	253%	–
c1nc(C2CCNCC2)sc1C1=NOCC(CN2CCCCC2)O1 (centres unmarked) [compound 874]	5 µM	194%	–
CC1(C2=NOCC(CN3CCCCC3)O2)CNC1 (racemic) [compound 549, rac-3-(3-methylazetidin-3-yl)-5-(piperidin-1-ylmethyl)-5,6-dihydro-1,4,2-dioxazine]	36 µM	232%	–
COC1CC(C2=NOCC(CN3CCCCC3)O2)CN(C)C1 (centres unmarked) [compound 689]	50 µM	137%	–
CN(C)[C@H]1CC[C@@H](C2=NOCC(CN3CCCCC3)O2)CC1 (relative stereo) [compound 569, rac-rel-cis-(1S,4S)—N,N-dimethyl-4-(5-(piperidin-1-ylmethyl)-5,6-dihydro-1,4,2-dioxazin-3-yl)cyclohexan-1-amine]	7 µM	187%	–
Cn1cnc(CC2(C3=NOCC(CN4CCCCC4)O3)CCNCC2)c1 (centres unmarked) [compound 582]	50 µM	114%	–
CC(C)C1ON=C(C2CCN(C)C2)OC1CN1CCCCC1 (racemic) [compound 707, rac-6-isopropyl-3-(1-methylpyrrolidin-3-yl)-5-(piperidin-1-ylmethyl)-5,6-dihydro-1,4,2-dioxazine]	4 µM and 2 µM	249%	230%
C1CCN(CC2CON=C([C@]34CNC[C@H]3COC4)O2)CC1 (relative stereo) [compound 494, rac-rel-trans-(3aR,6aR)-3a-(5-(piperidin-1-ylmethyl)-5,6-dihydro-1,4,2-dioxazin-3-yl)hexahydro-1H-furo[3,4-c]pyrrole]	18 µM	307%	–
c1sc(C2CCNCC2)nc1C1=NOCC(CN2CCCCC2)O1 (centres unmarked) [compound 878]	3 µM	231%	–
CC1(C)CNCC1C1=NOCC(CN2CCCCC2)O1 (racemic) [compound 688, rac-3-(4,4-dimethylpyrrolidin-3-yl)-5-(piperidin-1-ylmethyl)-5,6-dihydro-1,4,2-dioxazine]	34 µM	152%	–

SMILES	GBA EC1.5	Emax	GBA Emax
CC(=O)NC1CCNCC1C1=NOCC(CN2CCCCC2)O1 (centres unmarked) [compound 671]	50 µM	146%	–
C1CCN(CC2CON=C(C34CCN(CC3)C4)O2)CC1 (racemic) [compound 641, rac-3-(1-azabicyclo[2.2.1]heptan-4-yl)-5-(piperidin-1-ylmethyl)-5,6-dihydro-1,4,2-dioxazine]	3 µM	275%	–
C1CCN(CC2CON=C([C@]34CC[C@H]3CNC4)O2)CC1 (relative stereo) [compound 485, rac-rel-trans-3-((1R,5R)-3-azabicyclo[3.2.0]heptan-1-yl)-5-(piperidin-1-ylmethyl)-5,6-dihydro-1,4,2-dioxazine di-2,2,2-trifluoroacetate]	25 µM	174%	–
c1cc(C2CCCNC2)ccc1C1=NOCC(CN2CCCCC2)O1 (centres unmarked) [compound 856]	2 µM	134%	–
CC1(C)CC(C2=NOCC(CN3CCCCC3)O2)CCN1 (racemic) [compound 705, rac-3-(2,2-dimethyl-4-piperidyl)-5-(1-piperidylmethyl)-5,6-dihydro-1,4,2-dioxazine]	5 µM	180%	–
CC1ON=C(C2(C)CCNCC2)OC1CN1CCCCC1 (racemic) [compound 531, rac-6-methyl-3-(4-methylpiperidin-4-yl)-5-(piperidin-1-ylmethyl)-5,6-dihydro-1,4,2-dioxazine]	7 µM	282%	–
NC(=O)N1CCC(C2=NOCC(CN3CCCCC3)O2)CC1 (centres unmarked) [compound 639]	50 µM	112%	–
N[C@H]1CN[C@H](C2=NOCC(CN3CCCCC3)O2)C1 (some centres unmarked) [compound 597]	50 µM	106%	–
Cc1ncccc1CC1(C2=NOCC(CN3CCCCC3)O2)CCNCC1 (racemic) [compound 561, rac-3-(4-((2-methylpyridin-3-yl)methyl)piperidin-4-yl)-5-(piperidin-1-ylmethyl)-5,6-dihydro-1,4,2-dioxazine]	5 µM	184%	–
Nc1ccc(N2CCCC(C3=NOCC(CN4CCCCC4)O3)C2)nc1 (centres unmarked) [compound 687]	50 µM	110%	–
CN(C)C(=O)CN1CCCC(C2=NOCC(CN3CCCCC3)O2)C1 (racemic) [compound 710, rac-N,N-dimethyl-2-(3-(5-(piperidin-1-ylmethyl)-5,6-dihydro-1,4,2-dioxazin-3-yl)piperidin-1-yl)acetamide]	28 µM	234%	–
Nc1ccc(N2CCC(C3=NOCC(CN4CCCCC4)O3)CC2)nc1 (centres unmarked) [compound 679]	50 µM	107%	–
c1nc(C2CCCNC2)sc1C1=NOCC(CN2CCCCC2)O1 (centres unmarked) [compound 875]	5 µM	165%	–
COc1ccc(C2(C3=NOCC(CN4CCCCC4)O3)CCNCC2)nc1 (centres unmarked) [compound 852]	4 µM	203%	–
C1CCN(CC2CON=C([C@]34CCC[C@H]3NCC4)O2)CC1 (relative stereo) [compound 584, rac-rel-trans-3-((3aS,6aR)-hexahydrocyclopenta[b]pyrrol-3a(1H)-yl)-5-(piperidin-1-ylmethyl)-5,6-dihydro-1,4,2-dioxazine]	10 µM and 5 µM	–	253% and 204%
COC1CNCCC1C1=NOCC(CN2CCCCC2)O1 (racemic) [compound 690, rac-3-(3-methoxypiperidin-4-yl)-5-(piperidin-1-ylmethyl)-5,6-dihydro-1,4,2-dioxazine]	25 µM	205%	–
